From patent US20130303509A1, “NAMPT INHIBITORS” (AbbVie Inc., priority 2012, published 2013)

tested on: PC3 cells; assay: NAMPT Cell Proliferation Assay; format: cell-based; details: Homo sapiens, PC-3, 120 h, 5 days incubation, cell viability by Cell Titer Glo
How it was run: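 Five-day CellTiter-Glo viability readout in PC3 cells grown in RPMI/10% heat-inactivated FBS. Compounds added after overnight attachment as a 10-fold dilution series, […]. Percent inhibition fitted to sigmoidal dose-response to derive IC50.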

Compound | IC50
O=C(Nc1ccc(S(=O)(=O)C2CCN(C(=O)c3ccc(F)cc3)CC2)cc1)C1CN(c2ccnnc2)C1 [Example 616, N-(4-{[1-(4-fluorobenzoyl)piperidin-4-yl]sulfonyl}phenyl)-1-(pyridazin-4-yl)azetidine-3-carboxamide] | 7290 nM
O=C(Nc1ccc(S(=O)(=O)C2CCN(C(=O)C3CCCC3)CC2)cc1)C1CN(c2ccnnc2)C1 [Example 617, N-(4-{[1-(cyclopentylcarbonyl)piperidin-4-yl]sulfonyl}phenyl)-1-(pyridazin-4-yl)azetidine-3-carboxamide] | 1870 nM
CC(C)Cn1cc(-c2ccc(C(=O)N[C@@H]3CCN(c4cnnc(Cl)c4Cl)C3)s2)cn1 [Example 618, N-[(3R)-1-(5,6-dichloropyridazin-4-yl)pyrrolidin-3-yl]-5-[1-(2-methylpropyl)-1H-pyrazol-4-yl]thiophene-2-carboxamide] | > 10000 nM
CC(C)Cn1cc(-c2ccc(C(=O)N[C@@H]3CCN(c4ccc(Cl)nn4)C3)s2)cn1 [Example 619, N-[(3R)-1-(6-chloropyridazin-3-yl)pyrrolidin-3-yl]-5-[1-(2-methylpropyl)-1H-pyrazol-4-yl]thiophene-2-carboxamide] | > 10000 nM
CC(C)Cn1cc(-c2ccc(C(=O)N[C@H]3CCN(c4cnnc(Cl)c4Cl)C3)s2)cn1 [Example 620, N-[(3S)-1-(5,6-dichloropyridazin-4-yl)pyrrolidin-3-yl]-5-[1-(2-methylpropyl)-1H-pyrazol-4-yl]thiophene-2-carboxamide] | 2830 nM
CC(C)Cn1cc(-c2ccc(C(=O)N[C@H]3CCN(c4ccc(Cl)nn4)C3)s2)cn1 [Example 621, N-[(3S)-1-(6-chloropyridazin-3-yl)pyrrolidin-3-yl]-5-[1-(2-methylpropyl)-1H-pyrazol-4-yl]thiophene-2-carboxamide] | > 10000 nM
CC(C)Cn1cc(-c2cc(C(=O)N[C@@H]3CCN(c4cnnc(Cl)c4Cl)C3)cs2)cn1 [Example 622, N-[(3R)-1-(5,6-dichloropyridazin-4-yl)pyrrolidin-3-yl]-5-[1-(2-methylpropyl)-1H-pyrazol-4-yl]thiophene-3-carboxamide] | > 10000 nM
CC(C)Cn1cc(-c2cc(C(=O)N[C@@H]3CCN(c4ccnnc4)C3)cs2)cn1 [Example 624, 5-[1-(2-methylpropyl)-1H-pyrazol-4-yl]-N-[(3R)-1-(pyridazin-4-yl)pyrrolidin-3-yl]thiophene-3-carboxamide] | > 10000 nM
CC(C)(C)C(=O)N1CCC(c2ccc(NC(=O)C3CCN(c4cccnn4)CC3)cc2)CC1 [Example 625, N-{4-[1-(2,2-dimethylpropanoyl)piperidin-4-yl]phenyl}-1-(pyridazin-3-yl)piperidine-4-carboxamide] | 1900 nM
O=C(Nc1ccc(C2CCN(C(=O)c3ccccc3)CC2)cc1)C1CCN(c2cccnn2)CC1 [Example 626, N-[4-(1-benzoylpiperidin-4-yl)phenyl]-1-(pyridazin-3-yl)piperidine-4-carboxamide] | 5220 nM
O=C(Nc1ccc(C2CCN(C(=O)CCC(F)(F)F)CC2)cc1)C1CCN(c2cccnn2)CC1 [Example 628, 1-(pyridazin-3-yl)-N-{4-[1-(4,4,4-trifluorobutanoyl)piperidin-4-yl]phenyl}piperidine-4-carboxamide] | > 10000 nM
CC(C)Cn1cc(-c2cc(C(=O)N[C@H]3CCN(c4ccc(Cl)nn4)C3)cs2)cn1 [Example 629, N-[(3S)-1-(6-chloropyridazin-3-yl)pyrrolidin-3-yl]-5-[1-(2-methylpropyl)-1H-pyrazol-4-yl]thiophene-3-carboxamide] | 5010 nM
O=C(Nc1ccc(C2CCN(C(=O)c3cncs3)CC2)cc1)[C@H]1CCN(c2cccnn2)C1 [Example 630, (3S)-1-(pyridazin-3-yl)-N-{4-[1-(1,3-thiazol-5-ylcarbonyl)piperidin-4-yl]phenyl}pyrrolidine-3-carboxamide] | 8.12 nM
CO[C@H](C(=O)N1CCC(c2ccc(NC(=O)[C@H]3CCN(c4cccnn4)C3)cc2)CC1)c1ccccc1 [Example 633, (3S)-N-(4-{1-[(2S)-2-methoxy-2-phenylacetyl]piperidin-4-yl}phenyl)-1-(pyridazin-3-yl)pyrrolidine-3-carboxamide] | 8.95 nM
Cc1ccc(OCC(=O)N2CCC(c3ccc(NC(=O)[C@H]4CCN(c5cccnn5)C4)cc3)CC2)cc1 [Example 636, (3S)-N-(4-{1-[(4-methylphenoxy)acetyl]piperidin-4-yl}phenyl)-1-(pyridazin-3-yl)pyrrolidine-3-carboxamide] | 82.8 nM
O=C(Nc1ccc(C2CCN(C(=O)c3ccccc3F)CC2)cc1)[C@H]1CCN(c2cccnn2)C1 [Example 637, (3S)-N-{4-[1-(2-fluorobenzoyl)piperidin-4-yl]phenyl}-1-(pyridazin-3-yl)pyrrolidine-3-carboxamide] | 1.24 nM
O=C(Nc1ccc(C2CCN(C(=O)C3CCOC3)CC2)cc1)[C@H]1CCN(c2cccnn2)C1 (stereo partly drawn) [Example 638, (3S)-1-(pyridazin-3-yl)-N-{4-[1-(tetrahydrofuran-3-ylcarbonyl)piperidin-4-yl]phenyl}pyrrolidine-3-carboxamide] | 29.9 nM
O=C(Nc1ccc(C2CCN(C(=O)c3cccc4ccccc34)CC2)cc1)[C@H]1CCN(c2cccnn2)C1 [Example 639, (3S)-N-{4-[1-(naphthalen-1-ylcarbonyl)piperidin-4-yl]phenyl}-1-(pyridazin-3-yl)pyrrolidine-3-carboxamide] | 8.16 nM
O=C(Nc1ccc(C2CCN(C(=O)Cc3c(Cl)cccc3Cl)CC2)cc1)[C@H]1CCN(c2cccnn2)C1 [Example 640, (3S)-N-(4-{1-[(2,6-dichlorophenyl)acetyl]piperidin-4-yl}phenyl)-1-(pyridazin-3-yl)pyrrolidine-3-carboxamide] | 2.92 nM
O=C(Nc1ccc(C2CCN(C(=O)CCCc3cccs3)CC2)cc1)[C@H]1CCN(c2cccnn2)C1 [Example 642, (3S)-1-(pyridazin-3-yl)-N-(4-{1-[4-(thiophen-2-yl)butanoyl]piperidin-4-yl}phenyl)pyrrolidine-3-carboxamide] | 7.26 nM
O=C(Nc1ccc(C2CCN(C(=O)c3cc(F)ccc3F)CC2)cc1)[C@H]1CCN(c2cccnn2)C1 [Example 645, (3S)-N-{4-[1-(2,5-difluorobenzoyl)piperidin-4-yl]phenyl}-1-(pyridazin-3-yl)pyrrolidine-3-carboxamide] | 3.3 nM
O=C(Nc1ccc(C2CCN(C(=O)Cc3cccc(C(F)(F)F)c3)CC2)cc1)[C@H]1CCN(c2cccnn2)C1 [Example 648, (3S)-1-(pyridazin-3-yl)-N-[4-(1-{[3-(trifluoromethyl)phenyl]acetyl}piperidin-4-yl)phenyl]pyrrolidine-3-carboxamide] | 26.8 nM
O=C(Nc1ccc(C2CCN(C(=O)c3ccco3)CC2)cc1)[C@H]1CCN(c2cccnn2)C1 [Example 649, (3S)-N-{4-[1-(furan-2-ylcarbonyl)piperidin-4-yl]phenyl}-1-(pyridazin-3-yl)pyrrolidine-3-carboxamide] | 1.11 nM

Further molecules by falling IC50, results first:

IC50 | Compound
6170 nM | CC(C)Cn1cc(-c2cc(C(=O)N[C@@H]3CCN(c4cccnn4)C3)cs2)cn1 [Example 623, 5-[1-(2-methylpropyl)-1H-pyrazol-4-yl]-N-[(3R)-1-(pyridazin-3-yl)pyrrolidin-3-yl]thiophene-3-carboxamide]
853 nM | O=C(Nc1ccc(C2CCN(C(=O)c3ccccc3F)CC2)cc1)C1CCN(c2cccnn2)CC1 [Example 627, N-{4-[1-(2-fluorobenzoyl)piperidin-4-yl]phenyl}-1-(pyridazin-3-yl)piperidine-4-carboxamide]
72.6 nM | O=C(Nc1ccc(C2CCN(C(=O)Cc3cccc4ccccc34)CC2)cc1)[C@H]1CCN(c2cccnn2)C1 [Example 641, (3S)-N-{4-[1-(naphthalen-1-ylacetyl)piperidin-4-yl]phenyl}-1-(pyridazin-3-yl)pyrrolidine-3-carboxamide]
58.7 nM | O=C(Nc1ccc(C2CCN(C(=O)Cc3ccc4ccccc4c3)CC2)cc1)[C@H]1CCN(c2cccnn2)C1 [Example 646, (3S)-N-{4-[1-(naphthalen-2-ylacetyl)piperidin-4-yl]phenyl}-1-(pyridazin-3-yl)pyrrolidine-3-carboxamide]
41.6 nM | CCOCC(=O)N1CCC(c2ccc(NC(=O)[C@H]3CCN(c4cccnn4)C3)cc2)CC1 [Example 635, (3S)-N-{4-[1-(ethoxyacetyl)piperidin-4-yl]phenyl}-1-(pyridazin-3-yl)pyrrolidine-3-carboxamide]
9.58 nM | Cc1ccc(C(=O)N2CCC(c3ccc(NC(=O)[C@H]4CCN(c5cccnn5)C4)cc3)CC2)cc1 [Example 631, (3S)-N-{4-[1-(4-methylbenzoyl)piperidin-4-yl]phenyl}-1-(pyridazin-3-yl)pyrrolidine-3-carboxamide]
9.22 nM | CO[C@@H](C(=O)N1CCC(c2ccc(NC(=O)[C@H]3CCN(c4cccnn4)C3)cc2)CC1)c1ccccc1 [Example 634, (3S)-N-(4-{1-[(2R)-2-methoxy-2-phenylacetyl]piperidin-4-yl}phenyl)-1-(pyridazin-3-yl)pyrrolidine-3-carboxamide]
8.81 nM | CC[C@H](C(=O)N1CCC(c2ccc(NC(=O)[C@H]3CCN(c4cccnn4)C3)cc2)CC1)c1ccccc1 [Example 632, (3S)-N-(4-{1-[(2S)-2-phenylbutanoyl]piperidin-4-yl}phenyl)-1-(pyridazin-3-yl)pyrrolidine-3-carboxamide]
8.46 nM | O=C(Nc1ccc(C2CCN(C(=O)CC3CC3)CC2)cc1)[C@H]1CCN(c2cccnn2)C1 [Example 643, (3S)-N-{4-[1-(cyclopropylacetyl)piperidin-4-yl]phenyl}-1-(pyridazin-3-yl)pyrrolidine-3-carboxamide]
8.23 nM | O=C(Nc1ccc(C2CCN(C(=O)CC3CCCC3)CC2)cc1)[C@H]1CCN(c2cccnn2)C1 [Example 644, (3S)-N-{4-[1-(cyclopentylacetyl)piperidin-4-yl]phenyl}-1-(pyridazin-3-yl)pyrrolidine-3-carboxamide]
5.73 nM | O=C(Nc1ccc(C2CCN(C(=O)CCS(=O)(=O)c3ccccc3)CC2)cc1)[C@H]1CCN(c2cccnn2)C1 [Example 647, (3S)-N-(4-{1-[3-(phenylsulfonyl)propanoyl]piperidin-4-yl}phenyl)-1-(pyridazin-3-yl)pyrrolidine-3-carboxamide]
